Type in all cases: biochemical
Experiment [1] deals with T1, Human recombinant PDE2A (hPDE2A) (Homo sapiens, UniProt O00408).
T1 construct: His tag (inferred from metal chelate purification); made in house; host or cells: Sf9 insect cells (baculovirus)
Put plainly: In vitro assay PDE2A (SPA, 3H-cGMP hydrolysis). The following applies: for Emax: read-out: hPDE2A Emax.

For experiment [2], the target named is T2, Human recombinant PDE3A (hPDE3A) (Homo sapiens, UniProt Q14432).
T2 construct: purchased Scottish Biomedical; host or cells: Sf9 insect cells
T2 sequence (Q14432 whole entry): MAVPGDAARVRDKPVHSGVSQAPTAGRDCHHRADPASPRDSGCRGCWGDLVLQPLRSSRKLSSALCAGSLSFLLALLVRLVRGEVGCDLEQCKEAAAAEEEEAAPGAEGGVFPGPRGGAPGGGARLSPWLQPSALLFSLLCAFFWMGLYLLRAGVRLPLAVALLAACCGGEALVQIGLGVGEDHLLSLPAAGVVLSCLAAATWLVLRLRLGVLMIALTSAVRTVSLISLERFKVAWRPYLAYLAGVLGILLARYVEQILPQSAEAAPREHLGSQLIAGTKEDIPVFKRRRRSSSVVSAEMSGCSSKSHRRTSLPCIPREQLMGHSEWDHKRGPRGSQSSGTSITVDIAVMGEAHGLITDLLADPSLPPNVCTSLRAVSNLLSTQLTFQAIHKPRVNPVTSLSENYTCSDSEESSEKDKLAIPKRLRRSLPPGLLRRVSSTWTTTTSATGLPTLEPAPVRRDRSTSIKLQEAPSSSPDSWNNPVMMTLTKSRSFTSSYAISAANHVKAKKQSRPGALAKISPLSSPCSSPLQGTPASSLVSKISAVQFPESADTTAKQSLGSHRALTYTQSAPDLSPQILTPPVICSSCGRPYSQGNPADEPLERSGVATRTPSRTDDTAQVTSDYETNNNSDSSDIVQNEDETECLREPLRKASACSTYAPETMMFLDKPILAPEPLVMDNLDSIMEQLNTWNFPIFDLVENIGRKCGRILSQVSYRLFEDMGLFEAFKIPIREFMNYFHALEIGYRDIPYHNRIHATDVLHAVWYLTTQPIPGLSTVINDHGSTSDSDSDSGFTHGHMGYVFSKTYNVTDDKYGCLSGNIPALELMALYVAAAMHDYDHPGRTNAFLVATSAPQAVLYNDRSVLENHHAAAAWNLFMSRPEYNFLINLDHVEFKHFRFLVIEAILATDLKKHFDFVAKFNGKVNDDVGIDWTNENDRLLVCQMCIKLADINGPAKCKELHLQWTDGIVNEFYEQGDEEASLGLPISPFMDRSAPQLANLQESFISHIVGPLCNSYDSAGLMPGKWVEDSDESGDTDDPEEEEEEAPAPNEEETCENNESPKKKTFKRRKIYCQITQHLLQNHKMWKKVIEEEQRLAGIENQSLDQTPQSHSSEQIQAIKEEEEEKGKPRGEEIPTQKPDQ
The experiment is described as follows: In vitro assay PDE3A (SPA, 3H-cAMP hydrolysis).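 As to all read-outs here: the method names PDE3A and the table heading PDE3B.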 The conditions noted are these: for IC50: hPDE3B pIC50, read-out: pIC50 (converted); for Emax: read-out: hPDE3B Emax, read-out: Emax. Here is the method: Human recombinant PDE3A (hPDE3A) was supplied as a partially purified insect cell lysate by Scottish Biomedical, it was cloned from human brain and expressed in Sf9 cells. Tested compounds were dissolved and diluted in 100% DMSO to a concentration 100 fold of the final concentration in the assay. Compound dilutions (0.4 μl) were added in 384 well plates to 20 μl of incubation buffer (50 mM Tris pH 7.8, 8.3 mM MgCl2, 1.7 mM EGTA). 10 μl of hPDE3A enzyme in incubation buffer was added and the reaction was started by addition of 10 μl substrate to a final concentration of 0.4 μM cAMP and 2.4 μCi/ml [^3H]-cAMP. The reaction was incubated for 60 min at room temperature. […] After sedimentation of the beads during 30 min the radioactivity was measured in a Perkin Elmer Topcount scintillation counter and results were expressed as cpm. For blanc values the enzyme was omitted from the reaction and replaced by incubation buffer. Control values were obtained by addition of a final concentration of 1% DMSO instead of compound.

The target of experiment [3] is T3, Human recombinant PDE10A (hPDE10A) (Homo sapiens, UniProt Q9Y233).
T3 construct: His tag (inferred from metal chelate purification); made in house; host or cells: Sf9 insect cells (baculovirus)
T3 sequence (Q9Y233 267-1055): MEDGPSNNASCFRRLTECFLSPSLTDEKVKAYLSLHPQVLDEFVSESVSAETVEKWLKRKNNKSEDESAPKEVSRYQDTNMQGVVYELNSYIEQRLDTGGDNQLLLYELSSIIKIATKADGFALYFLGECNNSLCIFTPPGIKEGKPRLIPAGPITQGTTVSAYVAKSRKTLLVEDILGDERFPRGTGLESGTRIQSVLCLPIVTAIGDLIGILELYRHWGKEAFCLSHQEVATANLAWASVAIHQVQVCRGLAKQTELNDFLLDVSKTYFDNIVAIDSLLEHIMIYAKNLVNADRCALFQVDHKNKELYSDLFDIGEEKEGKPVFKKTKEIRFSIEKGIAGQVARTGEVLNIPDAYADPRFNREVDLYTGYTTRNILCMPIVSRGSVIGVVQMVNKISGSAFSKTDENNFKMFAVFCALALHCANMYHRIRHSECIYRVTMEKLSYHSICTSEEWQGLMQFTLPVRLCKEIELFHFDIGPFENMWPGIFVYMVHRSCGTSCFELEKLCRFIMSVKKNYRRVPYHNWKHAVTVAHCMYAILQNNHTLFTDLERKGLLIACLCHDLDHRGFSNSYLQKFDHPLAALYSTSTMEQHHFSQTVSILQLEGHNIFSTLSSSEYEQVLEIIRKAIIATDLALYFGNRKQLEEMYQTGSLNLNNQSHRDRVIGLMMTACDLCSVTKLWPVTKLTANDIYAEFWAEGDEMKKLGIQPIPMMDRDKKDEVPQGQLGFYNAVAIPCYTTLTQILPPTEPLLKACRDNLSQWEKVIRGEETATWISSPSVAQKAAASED
The experiment is described as follows: In vitro assay PDE10A, human clone (SPA, 3H-cAMP hydrolysis). Here is the method:
Rat recombinant PDE10A (rPDE10A2) was expressed in Sf9 cells using a recombinant rPDE10A baculovirus construct. […] Tested compounds were dissolved and diluted in 100% DMSO to a concentration 100 fold of the final concentration in the assay. Human recombinant PDE10A ([…]) was expressed in Sf9 cells using a recombinant hPDE10A baculovirus that was made and amplified in house. […] Compound dilutions (0.4 μl) were added in 384 well plates to 20 μl of incubation buffer (50 mM Tris pH 7.8, 8.3 mM MgCl2, 1.7 mM EGTA). 10 μl of rPDE10A or hPDE10A enzyme in incubation buffer was added and the reaction was started by addition of 10 μl substrate to a final concentration of 60 nM cAMP and 0.008 μCi ^3H-cAMP. The reaction was incubated for 60 minutes at room temperature. […] After sedimentation of the beads during 30 minutes the radioactivity was measured in a Perkin Elmer Topcount scintillation counter and results were expressed as cpm. For blanc values the enzyme was omitted from the reaction and replaced by incubation buffer. Control values were obtained by addition of a final concentration of 1% DMSO instead of compound.

The mark [4] stands for this setting: read-out: hPDE2A pIC50 (converted).
The mark [5] stands for this setting: human clone (h), default, read-out: hPDE10A2 Emax.
Where [6] appears, read: human clone (h), default, read-out: hPDE10A2 pIC50 (converted).
The mark [7] stands for this setting: human clone by default (no (r) mark), read-out: hPDE10A2 or rPDE10A2 Emax.
Setting [8] is: human clone by default (no (r) mark), read-out: hPDE10A2 or rPDE10A2 pIC50 (converted).
Setting [9] is: human recombinant PDE2A, 10 μM cGMP substrate, read-out: hPDE2A pIC50 (converted).

Like-named read-outs stand apart in the source and are kept apart here.

T1 sequence (O00408 whole entry): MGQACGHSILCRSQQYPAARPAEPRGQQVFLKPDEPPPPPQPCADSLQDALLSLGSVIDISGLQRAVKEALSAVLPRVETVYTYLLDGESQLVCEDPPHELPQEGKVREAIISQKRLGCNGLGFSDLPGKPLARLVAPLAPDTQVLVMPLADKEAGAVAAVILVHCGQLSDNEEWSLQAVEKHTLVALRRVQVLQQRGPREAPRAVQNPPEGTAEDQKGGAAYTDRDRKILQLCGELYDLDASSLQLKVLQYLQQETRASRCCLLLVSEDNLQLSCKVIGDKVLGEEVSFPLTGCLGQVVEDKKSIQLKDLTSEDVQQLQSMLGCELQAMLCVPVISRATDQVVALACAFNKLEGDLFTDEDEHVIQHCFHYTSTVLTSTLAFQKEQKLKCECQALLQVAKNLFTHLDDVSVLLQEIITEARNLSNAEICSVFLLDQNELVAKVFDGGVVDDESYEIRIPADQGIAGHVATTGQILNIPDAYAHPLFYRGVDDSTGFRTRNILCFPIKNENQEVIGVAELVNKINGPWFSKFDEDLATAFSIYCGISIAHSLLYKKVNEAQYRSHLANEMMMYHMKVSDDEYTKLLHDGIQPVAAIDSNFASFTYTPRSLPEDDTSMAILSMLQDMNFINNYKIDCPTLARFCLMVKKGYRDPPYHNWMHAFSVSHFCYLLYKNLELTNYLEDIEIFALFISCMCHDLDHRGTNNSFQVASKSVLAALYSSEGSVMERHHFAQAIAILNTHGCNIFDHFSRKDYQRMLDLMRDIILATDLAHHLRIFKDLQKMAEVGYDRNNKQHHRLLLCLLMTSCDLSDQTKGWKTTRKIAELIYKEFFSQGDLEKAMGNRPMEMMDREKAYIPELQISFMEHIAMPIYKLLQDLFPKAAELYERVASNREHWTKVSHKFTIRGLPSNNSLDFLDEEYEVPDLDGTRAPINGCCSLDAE

A word on the Emax: it is the greatest response seen or fitted, relative to the assay's reference. In the case of `C[C@@H]1CCN(C(=O)c2c(Cl)cncc2Cl)C[C@H]1c1cc(C(F)F)nc2ncnn12` [Compound 268], the Emax in experiment [1] stood at 82%; in experiment [2], 13%; in experiment [3] (setting [5]), 39%; in experiment [3] (setting [7]) it was 39%. Further, the IC50 in experiment [1] (setting [4]) is 1910 nM; in experiment [2], greater than 10000 nM; in experiment [3] (setting [6]), greater than 10000 nM; in experiment [3] (setting [8]) it was greater than 10000 nM.

For `Cc1cnoc1C(=O)N1CC[C@@H](C)[C@H](c2cc(C(F)F)nc3ncnn23)C1` [Compound 160], the IC50 in experiment [1] (setting [9]) is 72.4 nM; in experiment [1] (setting [4]), 72.4 nM; in experiment [2] it was greater than 10000 nM; in experiment [3] (setting [6]) it was 1020 nM. Moreover, the Emax in experiment [1] (human recombinant PDE2A) amounted to 99%; in experiment [1], 99%; in experiment [2] it was 34%; in experiment [3] (setting [5]) it was 88%.

On to `Cc1cc([C@@H]2CN(C(=O)c3ccc(C(C)(C)C)o3)CC[C@H]2C)n2ncnc2n1` [Compound 9], for which the IC50 in experiment [1] (setting [9]) is 13.8 nM; in experiment [1] (setting [4]), 13.8 nM; in experiment [2], 4270 nM; in experiment [3] (setting [6]), 74.1 nM. The Emax in experiment [1] (human recombinant PDE2A) came to 101%; in experiment [1], 101%; in experiment [2], 74%; in experiment [3] (setting [5]) it was 100%.

With `COc1cc(C(=O)N2[C@H]3CC[C@H](c4cc(C(F)F)nc5ncnn45)[C@@H]2CC3)ccc1Cl` [Compound 336], the Emax amounted to 101% in experiment [1], 78% in experiment [2] and 87% in experiment [3] (setting [7]). The IC50 in experiment [1] (setting [4]) was 18.6 nM; in experiment [2], 3240 nM; in experiment [3] (setting [8]) it was 1910 nM.

For the compound `Cc1nc(C(=O)N2CC[C@@H](C)[C@H](c3cc(C(F)F)nc4ncnn34)C2)c(C)o1` [Compound 252], the Emax came to 96% in experiment [1], 17% in experiment [2], 66% in experiment [3] (setting [5]) and 66% in experiment [3] (setting [7]). Moreover, the IC50 was 708 nM in experiment [1] (setting [4]), greater than 10000 nM in experiment [2], 6760 nM in experiment [3] (setting [6]) and 6760 nM in experiment [3] (setting [8]).

`C[C@@H]1CCN(C(=O)c2cc3ccc(C(F)(F)F)cc3[nH]2)C[C@H]1c1cc(C(F)F)nc2ncnn12` [Compound 94]: the IC50 in experiment [1] (setting [9]) was 0.501 nM; in experiment [1] (setting [4]), 0.501 nM; in experiment [2], 105 nM; in experiment [3] (setting [6]) it was 11.7 nM. Moreover, the Emax worked out at 101% in experiment [1] (human recombinant PDE2A), 101% in experiment [1], 99% in experiment [2] and 97% in experiment [3] (setting [5]).

For the compound `C[C@@H]1CCN(C(=O)c2ccc3ncoc3c2)C[C@H]1c1cc(C(F)F)nc2ncnn12` [Compound 104], the IC50 is 0.813 nM in experiment [1] (setting [9]), 0.813 nM in experiment [1] (setting [4]), 513 nM in experiment [2] and 74.1 nM in experiment [3] (setting [6]). Also, the Emax was found to be 100% in experiment [1] (human recombinant PDE2A), 100% in experiment [1], 92% in experiment [2] and 98% in experiment [3] (setting [5]).

Turning to `C[C@@H]1CCN(C(=O)c2ccncc2Cl)C[C@H]1c1cc(C(F)F)nc2ncnn12` [Compound 235], the IC50 in experiment [1] (setting [9]) was 123 nM; in experiment [1] (setting [4]) it was 123 nM; in experiment [2], greater than 10000 nM; in experiment [3] (setting [6]) it was 5500 nM; in experiment [3] (setting [8]) it was 5500 nM. For the same compound, the Emax in experiment [1] (human recombinant PDE2A) was 98%; in experiment [1], 98%; in experiment [2] it was 32%; in experiment [3] (setting [5]), 67%; in experiment [3] (setting [7]), 67%.

As for `C[C@@H]1CCN(C(=O)c2nccnc2Cl)C[C@H]1c1cc(C(F)F)nc2ncnn12` [Compound 237], the IC50 in experiment [1] (setting [9]) is 186 nM; in experiment [1] (setting [4]), 186 nM; in experiment [2] it was greater than 10000 nM; in experiment [3] (setting [6]), 8130 nM; in experiment [3] (setting [8]), 8130 nM. Moreover, the Emax was 97% in experiment [1] (human recombinant PDE2A); 97% in experiment [1]; 20% in experiment [2]; 51% in experiment [3] (setting [5]); 51% in experiment [3] (setting [7]).

As for `CC(C)c1n[nH]cc1C(=O)N1CC[C@@H](C)[C@H](c2cc(C(F)F)nc3ncnn23)C1` [Compound 61], the IC50 is 4.37 nM in experiment [1] (setting [9]), 4.37 nM in experiment [1] (setting [4]), greater than 10000 nM in experiment [2] and 457 nM in experiment [3] (setting [6]). In addition, the Emax in experiment [1] (human recombinant PDE2A) was determined as 101%; in experiment [1], 101%; in experiment [2], 45%; in experiment [3] (setting [5]), 92%.

Regarding `Cc1c(C(=O)N2CC[C@@H](C)[C@H](c3cc(C(F)F)nc4ncnn34)C2)ccnc1Cl` [Compound 159], the IC50 in experiment [1] (setting [9]) was 72.4 nM; in experiment [1] (setting [4]) it was 72.4 nM; in experiment [2] it was greater than 10000 nM; in experiment [3] (setting [6]), 3240 nM. Besides, the Emax in experiment [1] (human recombinant PDE2A) was 100%; in experiment [1] it was 100%; in experiment [2] it was 42%; in experiment [3] (setting [5]), 75%.

`O=C(c1ccc2occc2c1)N1CCC[C@](F)(c2cc(C(F)F)nc3ncnn23)C1` (single isomer, unassigned) [Compound 138]: the Emax in experiment [1] was 93%; in experiment [2], 64%; in experiment [3] (setting [5]), 24%. Moreover, the IC50 in experiment [1] (setting [4]) is 28.2 nM; in experiment [2], 4900 nM; in experiment [3] (setting [6]) it was greater than 10000 nM.

For `O=C(c1cccc2cccnc12)N1[C@H]2CC[C@H](c3cc(C(F)F)nc4ncnn34)[C@@H]1CC2` [Compound 316], the Emax in experiment [1] turned out to be 94%; in experiment [2], 5%; in experiment [3] (setting [7]), 14%. Besides, the IC50 in experiment [1] (setting [4]) is 257 nM; in experiment [2] it was greater than 10000 nM; in experiment [3] (setting [8]), greater than 10000 nM.

Take `Cc1cc(C(=O)N2CC[C@H](C)[C@@](F)(c3cc(C(F)F)nc4ncnn34)C2)cc(C2CC2)n1` [Compound 24a]: the IC50 is 2570 nM in experiment [1] (setting [9]), 2570 nM in experiment [1] (setting [4]), greater than 10000 nM in experiment [2] and greater than 10000 nM in experiment [3] (setting [6]). In addition, the Emax was 80% in experiment [1] (human recombinant PDE2A), 80% in experiment [1], 31% in experiment [2] and 23% in experiment [3] (setting [5]).

With `C[C@@H]1CCN(C(=O)c2ccc(Br)cn2)C[C@H]1c1cc(C(F)F)nc2ncnn12` [Compound 153], the IC50 is 43.7 nM in experiment [1] (setting [9]), 43.7 nM in experiment [1] (setting [4]), 3090 nM in experiment [2] and 1070 nM in experiment [3] (setting [6]). The Emax worked out at 100% in experiment [1] (human recombinant PDE2A), 100% in experiment [1], 76% in experiment [2] and 89% in experiment [3] (setting [5]).

`Cc1cc(C(=O)N2CC[C@@H](C)[C@H](c3cc(C(F)F)nc4ncnn34)C2)on1` [Compound 152]: the IC50 is 41.7 nM in experiment [1] (setting [9]), 41.7 nM in experiment [1] (setting [4]), greater than 10000 nM in experiment [2] and 2040 nM in experiment [3] (setting [6]). In addition, the Emax in experiment [1] (human recombinant PDE2A) was 99%; in experiment [1] it was 99%; in experiment [2], 30%; in experiment [3] (setting [5]), 80%.

For `Cc1cc([C@H]2CN(C(=O)c3cc(C)c(F)c(C)c3)CC[C@@H]2C)n2ncnc2n1` [Compound 217], the IC50 is 562 nM in experiment [1] (hPDE2A pIC50); 562 nM in experiment [1] (hPDE2A pIC50, human recombinant PDE2A, 10 μM cGMP substrate); greater than 10000 nM in experiment [2]; 4790 nM in experiment [3] (setting [6]); 4790 nM in experiment [3] (setting [8]). For the same compound, the Emax was 99% in experiment [1], 37% in experiment [2], 72% in experiment [3] (setting [5]) and 72% in experiment [3] (setting [7]).
